Measured values reported in patent publication US6949544B2, “Inhibitors of c-Jun N-terminal kinases (JNK) and other protein kinases” (Vertex Pharmaceuticals Incorporated, priority 2001, dated 2005).

Columns and labels:
Assay type in all cases: biochemical
activated JNK3 = target: T1, activated JNK3 (Homo sapiens, UniProt P53779); experiment: JNK inhibition assay (spectrophotometric coupled-enzyme assay); details: 10 nM activated JNK3, 10 μM ATP; read-out: Activity in the JNK3 Inhibition Assay (Ki rating A-C)
T1 construct: One such construct encodes amino acid residues Ser40-Glu402 of JNK3α1 and is preceded by Met and Gly residues; Met-Gly (initiator methionine and added glycine) (N); made in house; host or cells: E. coli BL21 (DE3)
Description: A BLAST search of the EST database using the published JNK3α1 cDNA as a query identified an EST clone (#632588) that contained the entire coding sequence for human JNK3α1. Polymerase chain reactions (PCR) using pfu polymerase (Strategene) were used to introduce restriction sites into the cDNA for cloning into the pET-15B expression vector at the NcoI and BamHI sites. The protein was expressed in E. coli. […] This truncation corresponds to Ser 2 of JNK1 and JNK2 proteins, and is preceded by a methionine (initiation) and a glycine residue. The glycine residue was added in order to introduce an NcoI site for cloning into the expression vector. In addition, systematic C-terminal truncations were performed by PCR to identify a construct that give rise to diffraction-quality crystals.
5 mg of JNK3 was diluted to 0.5 mg/ml in 50 mM HEPES buffer, pH 7.5, containing 100 mM NaCl, 5 mM DTT, 20 mM MgCl2 and 1 mM ATP. GST-MKK7(DD) was added at a molar ratio of 1:2.5 GST-MKK7:JNK3. After incubation for 30 minutes at 25° C., the reaction mixture was concentrated 5-fold by ultrafiltration in a Centriprep-30 (Amicon, Beverly, Mass.), diluted to 10 ml and an additional 1 mM ATP added. This procedure was repeated three times to remove ADP and replenish ATP. The final addition of ATP was 5 mM and the mixture incubated overnight at 4° C.
The activated JNK3/GST-MKK7(DD) reaction mixture was exchanged into 50 mM HEPES buffer, pH 7.5, containing 5 mM DTT and 5% glycerol (w/v) by dialysis or ultrafiltration. The reaction mixture was adjusted to 1.1 M potassium phosphate, pH 7.5, and purified by hydrophobic interaction chromatography (at 25° C.) using a Rainin Hydropore column. […] Activated JNK3 (i.e. doubly phosphorylated JNK3) was stored at −70° C. at 0.25-1 mg/ml.
Compounds were assayed for the inhibition of JNK3 by a spectrophotometric coupled-enzyme assay. In this assay, a fixed concentration of activated JNK3 (10 nM) was incubated with various concentrations of a potential inhibitor dissolved in DMSO for 10 minutes at 30° C. in a buffer containing 0.1 M HEPES buffer, pH 7.5, containing 10 mM MgCl2, 2.5 mM phosphoenolpyruvate, 200 μM NADH, 150 μg/mL pyruvate kinase, 50 μg/mL lactate dehydrogenase, and 200 μM EGF receptor peptide. […] The reaction was initiated by the addition of 10 μM ATP and the assay plate is inserted into the spectrophotometer's assay plate compartment that was maintained at 30° C. The decrease of absorbance at 340 nm was monitored as a function of time. The rate data as a function of inhibitor concentration was fitted to competitive inhibition kinetic model to determine the Ki.

[1] = target: Glycogen Synthase Kinase 3 (GSK-3) (Homo sapiens, UniProt P49841); experiment: GSK-3 inhibition assay (standard coupled enzyme assay); details: 60 nM GSK-3, 10 μM ATP; read-out: GSK-3 Inhibitory Activity (Ki rating A-C)
Experimental: Compounds were screened in the following manner for their ability to inhibit Glycogen Synthase Kinase 3 (GSK-3) using a standard coupled enzyme assay (Fox et al (1998) Protein Sci 7, 2249). To an assay stock buffer solution containing 0.1M HEPES 7.5, 10 mM MgCl2, 25 mM NaCl, 2.5 mM phosphoenolpyruvate, 300 μM NADH, 1 mM DTT, 30 μg/mL pyruvate kinase, 10 μg/mL lactate dehydrogenase, 300 μM peptide (HSSPHQp-SEDEEE, American Peptide, Sunnyvale, Calif.), and 60 nM GSK-3, was added a 30 μM solution of the compound in DMSO and the resulting mixture incubated at 30° C. for 5 min. The reaction was initiated by the addition of 10 μM ATP. The rates of reaction were obtained by monitoring absorbance at 340 nm over a 5 minute read time at 30° C. using a Molecular Devices plate reader (Sunnyvale, Calif.). The IC50 was determined from the rate data as a function of inhibitor concentration.

CDK-2/Cyclin A = CDK-2/Cyclin A (Homo sapiens, UniProt P24941); experiment: CDK2 inhibition assay (standard coupled enzyme assay); details: 25 nM CDK-2/Cyclin A; read-out: CDK2 Inhibitory Activity (Ki rating A-C)
Experimental: Compounds were screened in the following manner for their ability to inhibit CDK2 using a standard coupled enzyme assay (Fox et al (1998) Protein Sci 7, 2249).
To an assay stock buffer solution containing 0.1M HEPES 7.5, 10 mM MgCl2, 1 mM DTT, 25 mM NaCl, 2.5 mM phosphoenolpyruvate, […], […], […], […], and 100 μM peptide ([…], American Peptide, Sunnyvale, Calif.) was added a DMSO solution of a compound of the present invention to a final concentration of 30 μM. The resulting mixture was incubated at 30° C. for 10 minutes.
The reaction was initiated by the addition of 10 μL of CDK-2/Cyclin A stock solution to give a final concentration of 25 nM in the assay. The rates of reaction were obtained by monitoring absorbance at 340 nm over a 5-minute read time at 30° C. using a BioRad Ultramark plate reader (Hercules, Calif.). The Ki values were determined from the rate data as a function of inhibitor concentration.

[2] = target: T2, Lck kinase purified from bovine thymus (Bos taurus, UniProt Q3ZCM0); experiment: Lck inhibition assay (33P incorporation into poly Glu-Tyr); details: 10 μM ATP; read-out: Activity in the Lck Inhibition Assay (Ki rating A-C)
T2 construct: Lck kinase purified from bovine thymus; purchased Upstate Biotechnology 14-106; host or cells: bovine thymus (tissue-purified)
Experimental: The compounds were assayed as inhibitors of Lck kinase purified from bovine thymus (from Upstate Biotechnology, cat. no. 14-106). Lck kinase activity was monitored by following the incorporation of ^33P from ATP into the tyrosine of a random poly Glu-Tyr polymer substrate of composition, Glu:Tyr=4:1 (Sigma, cat. no. P-0275). The following were the final concentrations of the assay components: 0.05 M HEPES, pH 7.6, 10 mM MgCl2, 2 mM DTT, 0.25 mg/ml BSA, 10 μM ATP (1-2 μCi ^33P-ATP per reaction), 5 mg/ml poly Glu-Tyr, and 1-2 units of lck kinase. In a typical assay, all the reaction components with the exception of ATP were pre-mixed and aliquoted into assay plate wells. […] The assay plate was incubated at 30° C. for 10 min before initiating the reaction with ^33P-ATP. After 20 min of reaction, the reactions were quenched with 150 μl of 10% trichloroacetic acid (TCA) containing 20 mM Na3PO4. The quenched samples were then transferred to a 96-well filter plate (Whatman, UNI-Filter GF/F Glass Fiber Filter, cat no. 7700-3310) installed on a filter plate vacuum manifold. Filter plates were washed four times with 10% TCA containing 20 mM Na3PO4 and then 4 times with methanol. 200 μl of scintillation fluid was then added to each well. The plates were sealed and the amount of radioactivity associated with the filters was quantified on a TopCount scintillation counter.

T2 sequence (Q3ZCM0 1-509): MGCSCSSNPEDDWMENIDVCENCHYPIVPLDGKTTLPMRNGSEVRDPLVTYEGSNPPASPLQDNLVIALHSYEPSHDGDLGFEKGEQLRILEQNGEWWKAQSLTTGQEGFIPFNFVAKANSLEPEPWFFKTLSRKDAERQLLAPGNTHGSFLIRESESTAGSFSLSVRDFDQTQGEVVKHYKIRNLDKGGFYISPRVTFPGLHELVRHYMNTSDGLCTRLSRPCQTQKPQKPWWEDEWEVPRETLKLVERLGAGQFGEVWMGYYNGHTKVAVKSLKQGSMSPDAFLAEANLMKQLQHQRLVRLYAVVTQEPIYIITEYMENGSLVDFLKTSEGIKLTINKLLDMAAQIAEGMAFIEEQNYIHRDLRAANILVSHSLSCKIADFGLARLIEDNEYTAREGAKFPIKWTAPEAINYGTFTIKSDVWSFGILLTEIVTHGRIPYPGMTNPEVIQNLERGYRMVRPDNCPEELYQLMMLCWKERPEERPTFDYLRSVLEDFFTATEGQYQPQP
Sequence of Glycogen Synthase Kinase 3 (GSK-3) (P49841 whole entry): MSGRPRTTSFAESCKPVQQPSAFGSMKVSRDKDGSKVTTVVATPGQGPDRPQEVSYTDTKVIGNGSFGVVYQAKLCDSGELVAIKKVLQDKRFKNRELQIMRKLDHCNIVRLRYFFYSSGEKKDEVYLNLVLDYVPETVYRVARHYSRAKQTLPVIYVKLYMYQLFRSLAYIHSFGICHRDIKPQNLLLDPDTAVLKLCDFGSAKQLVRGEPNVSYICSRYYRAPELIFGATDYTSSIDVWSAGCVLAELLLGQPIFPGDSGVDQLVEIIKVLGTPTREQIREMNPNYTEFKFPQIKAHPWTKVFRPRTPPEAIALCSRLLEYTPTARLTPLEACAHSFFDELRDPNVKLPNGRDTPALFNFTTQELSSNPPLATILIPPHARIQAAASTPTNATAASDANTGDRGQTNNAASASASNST
T1 sequence (P53779 40-402): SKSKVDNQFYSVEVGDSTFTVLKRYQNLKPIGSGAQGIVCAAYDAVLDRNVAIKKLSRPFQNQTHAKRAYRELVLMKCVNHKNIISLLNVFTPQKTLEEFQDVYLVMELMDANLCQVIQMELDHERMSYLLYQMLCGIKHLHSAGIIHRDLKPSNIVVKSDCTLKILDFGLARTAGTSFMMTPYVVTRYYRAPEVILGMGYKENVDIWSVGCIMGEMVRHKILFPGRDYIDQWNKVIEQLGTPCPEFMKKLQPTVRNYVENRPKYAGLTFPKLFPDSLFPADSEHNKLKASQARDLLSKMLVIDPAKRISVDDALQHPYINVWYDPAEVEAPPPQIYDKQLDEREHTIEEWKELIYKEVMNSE

Ki (activated JNK3) [µM] | Ki [1] [µM] | Ki (CDK-2/Cyclin A) [µM] | Ki [2] [µM] | Compound
0.1 to 1 | > 1 | > 5 | – | COc1cc(-c2ccnc(Nc3ccccc3F)n2)cc(OC)c1OC [Compound I-5]
< 0.1 | 0.1 to 1 | > 5 | – | COc1cc(-c2ccnc(Nc3ccc(Cl)cc3)n2)cc(OC)c1OC [Compound I-9]
0.1 to 1 | 0.1 to 1 | > 5 | – | COc1cc(-c2ccnc(Nc3nc(C)cs3)n2)cc(OC)c1OC [Compound I-10]
< 0.1 | < 0.1 | > 5 | – | COc1cc(-c2ccnc(Nc3cccc(Cl)c3)n2)cc(OC)c1OC [Compound I-18]
< 0.1 | 0.1 to 1 | > 5 | – | COc1cccc(Nc2nccc(-c3cc(OC)c(OC)c(OC)c3)n2)c1 [Compound I-20]
< 0.1 | > 1 | > 5 | – | COc1cc(-c2ccnc(Nc3cc(F)c(F)c(F)c3)n2)cc(OC)c1OC [Compound I-22]
< 0.1 | < 0.1 | > 5 | – | COc1ccc(Nc2nccc(-c3cc(OC)c(OC)c(OC)c3)n2)cc1Cl [Compound I-35]
> 1 | > 1 | – | – | COc1cc(-c2ccnc(NCc3ccccc3)n2)cc(OC)c1OC [Compound I-37]
< 0.1 | < 0.1 | > 5 | – | COc1cc(-c2ccnc(Nc3cccc(OCc4ccccc4)c3)n2)cc(OC)c1OC [Compound I-38]
< 0.1 | 0.1 to 1 | > 5 | – | COc1cc(-c2ccnc(Nc3cccc(Cl)c3)n2)cc(OC)c1OCCN1CCOCC1 [Compound I-39, (3-Chlorophenyl)-(4[3,5-dimethoxy-4-(2-morpholin-4-yl-ethoxy)phenyl]pyrimidin-2-yl)-amine]
0.1 to 1 | 0.1 to 1 | > 5 | – | COc1c(Cl)cc(-c2ccnc(Nc3cccc(Cl)c3)n2)cc1Cl [Compound I-41]
< 0.1 | > 1 | > 5 | – | COc1c(C)cc(-c2ccnc(Nc3cccc(Cl)c3)n2)cc1C [Compound I-42]
< 0.1 | 0.1 to 1 | – | – | COc1cccc(Nc2nccc(-c3cc(C)c(OC)c(C)c3)n2)c1 [Compound I-52]
> 1 | > 1 | – | – | COc1cc(-c2ccnc(Nc3nnc(C)s3)n2)cc(OC)c1OC [Compound I-83]
0.1 to 1 | – | – | 0.1 to 1 | COc1cc(-c2ccnc(Nc3nccs3)n2)cc(OC)c1OC [Compound I-85]
0.1 to 1 | > 1 | – | – | COc1cc(-c2ccnc(Nc3onc(C)c3C)n2)cc(OC)c1OC [Compound I-87]
0.1 to 1 | > 1 | – | – | COc1cc(-c2ccnc(Nc3cc(C)n[nH]3)n2)cc(OC)c1OC [Compound I-88]

Ki (activated JNK3) [µM] | Ki [1] [µM] | Ki (CDK-2/Cyclin A) [µM] | Ki [2] [µM] | Compound
0.1 to 1 | – | – | 0.1 to 1 | COc1cc(-c2ccnc(Nc3cccc(N(C)C)c3)n2)cc(OC)c1OC [Compound I-89]
< 0.1 | – | – | 0.1 to 1 | COc1cc(-c2ccnc(Nc3cccc(S(N)(=O)=O)c3)n2)cc(OC)c1OC [Compound I-94]
– | > 1 | – | – | CCc1ccc(Nc2cc(-c3cc(OC)c(OC)c(OC)c3)ccn2)cc1 [Compound I-158]
– | 0.1 to 1 | – | – | COc1cc(-c2ccnc(Nc3ccc(F)cc3F)c2)cc(OC)c1OC [Compound I-159]
– | > 1 | – | – | COc1cc(-c2ccnc(Nc3ccc(F)c(F)c3)c2)cc(OC)c1OC [Compound I-160]
– | – | > 5 | < 0.1 | COc1ccc(-c2ccnc(Nc3cccc(-c4ccc(CO)cc4)c3)n2)c(OC)c1OC [II-49]
– | – | > 5 | 0.1 to 1 | COc1ccc(-c2ccnc(Nc3cccc(-c4ccc(F)c(Cl)c4)c3)n2)c(OC)c1OC [II-50]
– | – | > 5 | 0.1 to 1 | COc1ccc(-c2ccnc(Nc3cccc(-c4cccc(N)c4)c3)n2)c(OC)c1OC [II-51]
– | – | > 5 | 0.1 to 1 | COc1ccc(-c2ccnc(Nc3cccc(-c4ccc(N(C)C)cc4)c3)n2)c(OC)c1OC [II-52]
– | – | > 5 | 0.1 to 1 | COc1ccc(-c2ccnc(Nc3cccc(-c4cccnc4)c3)n2)c(OC)c1OC [II-53]
– | – | > 5 | 0.1 to 1 | COc1ccc(-c2ccnc(Nc3cc(-c4cccc(Cl)c4)ccc3C)n2)c(OC)c1OC [II-54]
– | – | > 5 | < 0.1 | COc1ccc(-c2ccnc(Nc3cc(-c4ccc(N(C)C)cc4)ccc3C)n2)c(OC)c1OC [II-55]
– | – | > 5 | > 1 | COc1ccc(-c2ccnc(Nc3cc(-c4cccc(C(F)(F)F)c4)ccc3C)n2)c(OC)c1OC [II-57]
– | – | > 5 | > 1 | COc1ccc(-c2ccnc(Nc3cc(-c4cc(C)ccc4C)ccc3C)n2)c(OC)c1OC [II-58]
– | – | > 5 | 0.1 to 1 | CCOc1cccc(-c2ccc(C)c(Nc3nccc(-c4ccc(OC)c(OC)c4OC)n3)c2)c1 [II-59]
– | – | > 5 | 0.1 to 1 | COc1ccc(-c2ccnc(Nc3cc(-c4cccnc4)ccc3C)n2)c(OC)c1OC [II-60]
– | – | > 5 | 0.1 to 1 | COc1ccc(-c2ccnc(Nc3cc(CO)ccc3C)n2)c(OC)c1OC [II-61]
